Assay results from patent US20050171172A1, “Amide derivatives as PDGFR modulators” (Ambit Biosciences Corporation, priority 2003, published 2005).

molecular target: T1, human PDGFR-β (Homo sapiens, UniProt P09619); assay: phage-display-based competitive binding assay for PDGFR-β; conditions: T7 phage displaying human PDGFR-β; Kd class; read-out: Binding Assay:PDGFRB (DKIN)
T1 construct: made in house
Method: The term “ND” represents non-determined values.
Kd values for the interactions between PDGFR-β and candidate small molecule ligands were measured by a phage-display-based competitive binding assay that is described in detail in U.S. Ser. No. 10/406,797 filed 2 Apr. 2003 and incorporated herein by reference. Briefly, T7 phage displaying human PDGFR-β were incubated with an affinity matrix coated with known PDGFR-β inhibitor in the presence of various concentrations of the soluble competitor molecules. […] The Kd for the interaction between the soluble competitor molecule and PDGFR-β is equal to the concentration of soluble competitor molecule that causes a 50% reduction in the number of phage recovered in the eluate compared to a control sample lacking soluble competitor. Kd values for the interaction between PDGFR-β and several small molecules are shown in below: […]

T1 sequence (P09619 33-1106): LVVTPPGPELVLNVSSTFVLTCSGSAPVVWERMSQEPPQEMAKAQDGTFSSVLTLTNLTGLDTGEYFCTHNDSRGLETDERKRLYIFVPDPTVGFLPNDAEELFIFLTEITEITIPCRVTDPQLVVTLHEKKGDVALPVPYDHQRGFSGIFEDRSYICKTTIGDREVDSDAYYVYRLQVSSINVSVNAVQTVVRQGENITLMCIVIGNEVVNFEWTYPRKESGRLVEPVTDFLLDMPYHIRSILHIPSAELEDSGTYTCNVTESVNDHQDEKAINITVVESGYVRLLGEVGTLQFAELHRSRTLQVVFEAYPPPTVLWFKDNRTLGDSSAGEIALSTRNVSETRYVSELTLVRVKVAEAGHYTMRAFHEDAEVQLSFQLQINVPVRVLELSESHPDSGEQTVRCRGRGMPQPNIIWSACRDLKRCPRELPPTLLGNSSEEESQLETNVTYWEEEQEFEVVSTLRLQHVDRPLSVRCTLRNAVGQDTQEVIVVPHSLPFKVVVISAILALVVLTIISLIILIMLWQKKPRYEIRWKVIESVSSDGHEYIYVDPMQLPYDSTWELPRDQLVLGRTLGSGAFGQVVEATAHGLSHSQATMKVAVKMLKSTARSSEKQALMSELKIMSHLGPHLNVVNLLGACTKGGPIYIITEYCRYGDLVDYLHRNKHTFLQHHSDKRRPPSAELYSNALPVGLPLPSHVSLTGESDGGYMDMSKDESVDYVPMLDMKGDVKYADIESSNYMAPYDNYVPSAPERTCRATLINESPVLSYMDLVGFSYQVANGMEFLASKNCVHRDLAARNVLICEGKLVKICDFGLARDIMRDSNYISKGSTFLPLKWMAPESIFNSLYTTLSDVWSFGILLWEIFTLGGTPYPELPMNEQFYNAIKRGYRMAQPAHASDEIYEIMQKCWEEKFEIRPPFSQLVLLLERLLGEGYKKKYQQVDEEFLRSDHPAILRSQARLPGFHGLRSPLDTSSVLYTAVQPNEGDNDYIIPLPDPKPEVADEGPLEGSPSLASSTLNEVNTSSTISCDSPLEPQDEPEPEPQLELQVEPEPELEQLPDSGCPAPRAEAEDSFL

| Kd [nM] | SMILES |
| --- | --- |
| < 100 | COc1ccc(CC(=O)Nc2cc(C(C)(C)C)no2)cc1 |
| < 100 | CC(C)(C)c1cc(NC(=O)Cc2ccc(Br)cc2)on1 |
| < 100 | CC(C)(C)c1cc(NC(=O)Cc2ccc(OCc3ccccc3)cc2)on1 |
| 1000 to 10000 | COc1ccc(SC(=O)Nc2cc(C(C)(C)C)on2)cc1 |
| 100 to 1000 | COc1cccc2cc([C@H](C)C(=O)Nc3cc(C(C)(C)C)on3)ccc12 |
| > 10000 | CC(C)(C)c1cc(NC(=O)Sc2ccc(Cl)cc2)no1 |
| 100 to 1000 | CC(C)(C)c1cc(NC(=O)Cc2ccc(F)cc2)on1 |
| > 10000 | CC(C)Cc1ccc(C(C)C(=O)Nc2ccnn2-c2ccccc2)cc1 (stereo not shown) |
| 100 to 1000 | CC(C)(C)c1cc(NC(=O)Cc2ccc(Cl)cc2)on1 |
| > 10000 | CC(C)(C)c1cc(NC(=O)Cc2ccc(O)cc2)no1 |
| > 10000 | Cc1csc(NC(=O)Cc2ccc(OCc3ccccc3)cc2)n1 |
| > 10000 | Cc1cc(C)n(C(=O)Nc2ccc(Cl)cc2)n1 |
| > 10000 | Cc1cnc(NC(=O)Cc2ccc(OCc3ccccc3)cc2)s1 |
| 100 to 1000 | Cc1nn(C)c(Cl)c1C(=O)Nc1ccc(CC(=O)Nc2cc(C(C)(C)C)on2)cc1 |
| > 10000 | O=C(Cc1ccc(OCc2ccccc2)cc1)Nc1nc(-c2ccc(Cl)cc2)cs1 |
| < 100 | CSc1ncc(Br)c(C(=O)Nc2ccc(CC(=O)Nc3cc(C(C)(C)C)on3)cc2)n1 |
| > 10000 | O=C(Cc1ccc(OCc2ccccc2)cc1)Nc1nc2ccccc2s1 |
| < 100 | CC(C)(C)c1cc(NC(=O)Cc2ccc(NC(=O)c3ccc4cnccc4n3)cc2)no1 |
| > 10000 | COc1cccc2sc(NC(=O)Cc3ccc(OCc4ccccc4)cc3)nc12 |
| < 100 | Cn1cc(C(=O)Nc2ccc(CC(=O)Nc3cc(C(C)(C)C)on3)cc2)c2ccccc21 |
| 1000 to 10000 | CC(C)(C)c1cc(NC(=O)Cc2ccc(NC(=O)c3cccc4cccnc34)cc2)no1 |
| < 100 | CC(C)(C)c1cc(NC(=O)Cc2ccc(NC(=O)c3cnc4ccccc4c3)cc2)no1 |
